In patent publication US4966900A, “Cephalosporin β-lactam compound and medicinal composition” (priority 1986, dated 1990):
Structures can show the parent of a compound that is named as a salt.

Legend:
[1] = system: C. freundii 1U589; assay: MIC; conditions: Citrobacter freundii, 1U589
[2] = system: P. cepacia OF189; assay: MIC; conditions: Burkholderia cepacia, OF189, P. cepacia OF189; Table 5
[3] = system: C. freundii 1R526; assay: MIC; conditions: Citrobacter freundii, 1R526
[4] = system: E. cloacae 1V25; assay: MIC; conditions: Enterobacter cloacae
[5] = system: C. freundii 1R523; assay: MIC; conditions: Citrobacter freundii, 1R523
[6] = system: C. freundii GN7391; assay: MIC; conditions: Citrobacter freundii, GN7391, C. freundii GN7391
[7] = system: P. maltophilia OF247; assay: MIC; conditions: Stenotrophomonas maltophilia, Table 5
[8] = system: E. coli ML4707; assay: MIC; conditions: Escherichia coli, ML4707, E. coli ML4707; Table 5
[9] = system: S. aureus Smith; assay: MIC; conditions: Staphylococcus aureus, Table 5
[10] = system: E. cloacae 5D63-2; assay: MIC; conditions: Enterobacter cloacae, 5D632
[11] = system: S. aureus IAA498; assay: MIC; assay type: cell-based; conditions: Staphylococcus aureus, Table 5
Protocol: (§1) The minimum inhibition concentrations (MIC) of the compounds obtained in the respective examples described above were measured according to the standard method of Japanese Chemotherapy Association.

[12] = system: E. cloacae 1Y247; assay: MIC; assay type: cell-based; conditions: Enterobacter cloacae, Table 6, read-out: MIC
Protocol: as §1

[13] = system: C. freundii 1R524; assay: MIC; conditions: Citrobacter freundii, 1R524
[14] = system: K. pneumoniae 4at521; assay: MIC; conditions: Klebsiella pneumoniae, 4AT521
[15] = system: E. coli GN5482; assay: MIC; conditions: Escherichia coli, GN5482, E. coli GN5482; Table 5
[16] = system: C. freundii 1R527; assay: MIC; conditions: Citrobacter freundii, 1R527
[17] = system: P. aeruginosa 4au542; assay: MIC; conditions: Pseudomonas aeruginosa, 4AU542, P. aeruginosa 4au542; Table 5
[18] = system: E. cloacae 5D52-2; assay: MIC; conditions: Enterobacter cloacae, 5D522
[19] = system: P. aeruginosa GN10362; assay: MIC; conditions: Pseudomonas aeruginosa, GN10362
[20] = in vivo; design: species or system Macaco; conditions: monkey, 20 mg/kg
Protocol: Each of 20 mg/kg of the compounds obtained in Example 2, Example 25 and Example 28 was administered parenterally to Macaco and the half-time in blood was measured.
The concentrations of the compounds were measured according to HPLC method. Novapack C18 or Microbondapack C18 (trade name, produced by Waters Co.) was used as a column. Further, cefpiramide was used as a control drug.

[21] = system: C. freundii 1U692; assay: MIC; conditions: Citrobacter freundii, 1U692
[22] = system: P. vulgaris GN7919; assay: MIC; conditions: Proteus vulgaris, GN7919
[23] = system: S. marcescens GN10857; assay: MIC; conditions: Serratia marcescens, GN10857, S. marcescens GN10857; Table 5
[24] = system: E. cloacae 908RN; assay: MIC; conditions: Enterobacter cloacae
[25] = system: E. colacae GN7471; assay: MIC; conditions: Table 5
[26] = system: C. freundii 5D60-1; assay: MIC; conditions: Citrobacter freundii, 5D601
[27] = system: P. aeruginosa 5D58-1; assay: MIC; conditions: Pseudomonas aeruginosa, 5D581, P. aeruginosa 5D58-1; Table 5

SMILES | MIC [1] [µg/mL] | MIC [2] [µg/mL] | MIC [3] [µg/mL] | MIC [4] [µg/mL] | MIC [5] [µg/mL] | MIC ([6]; Table 5) [µg/mL] | MIC ([6]; Table 6) [µg/mL] | MIC [7] [µg/mL] | MIC [8] [µg/mL] | MIC [9] [µg/mL] | MIC [10] [µg/mL] | MIC [11] [µg/mL] | MIC [12] [µg/mL] | MIC [13] [µg/mL] | MIC [14] [µg/mL] | MIC [15] [µg/mL] | MIC [16] [µg/mL] | MIC [17] [µg/mL] | MIC [18] [µg/mL] | MIC [19] [µg/mL] | also measured
Cc1cc(SCC2=C(C(=O)O)N3C(=O)C(NC(=O)C(=NOC(C)(C)C(=O)NNC(=O)c4ccc(O)c(O)c4)c4csc(N)n4)C3SC2)n2ncc(C(=O)O)c2n1 (stereo not shown) [Example 25, 7-{2-[2-amino-1,3-thiazol-4-yl]-2-[1-(3-(3,4-dihydroxybenzoyl)carbazoyl)-1-methylethoxyimino]acetamide}-3-[(3-carboxy-5-methylpyrazolo[1,5-a]pyrimidin-7-yl)thiomethyl]-3-cephem-4-carboxylic acid.hydrochloride] | 0.39 | < 0.006 | 0.2 | 6.25 | 0.2 | 6.25 | 6.25 | 0.1 | < 0.006 | 6.25 | 0.39 | 12.5 | 12.5 | 0.1 | < 0.006 | < 0.006 | 0.1 | 0.1 | 0.39 | 0.025 | half-life [20]: 4 h; MIC [21]: 0.39 µg/mL; MIC [22]: 0.39 µg/mL; MIC [23]: 0.1 µg/mL; MIC ([24]; E. cloacae 908RN, Table 6): 3.13 µg/mL; MIC ([24]; E. colacae 908RN, Table 5): 1.56 µg/mL; MIC [25]: 3.13 µg/mL; MIC [26]: 0.78 µg/mL; MIC [27]: 0.05 µg/mL
CC(C)(ON=C(C(=O)NC1C(=O)N2C(C(=O)O)=C(CSc3c4c(nc5c(C(=O)O)cnn35)CCC4)CSC12)c1csc(N)n1)C(=O)NNC(=O)c1ccc(O)c(O)c1 (stereo not shown) [Example 28, 7-{2-[2-Amino-1,3-thiazol-4-yl]-2-[1-(3-(3,4-dihydroxybenzoyl)carbazoyl)-1-methylethoxyimino]acetamide}-3-[(3-carboxy-6,7-dihydro-5H-cyclopenta[f]pyrazolo[1,5-a]pyrimidin-8-yl)thiomethyl]-3-cephem-4-carboxylic acid.hydrochloride] | 0.39 | 0.012 | 0.1 | 0.2 | 0.2 | 0.78 | 1.56 | 0.39 | 0.012 | 12.5 | 0.2 | 25 | 0.78 | 0.1 | < 0.006 | < 0.006 | 0.1 | 0.39 | 0.1 | 0.05 | half-life [20]: 4.7 h; MIC [21]: 0.39 µg/mL; MIC [22]: 0.78 µg/mL; MIC [23]: 0.2 µg/mL; MIC ([24]; E. cloacae 908RN, Table 6): 1.56 µg/mL; MIC ([24]; E. colacae 908RN, Table 5): 0.78 µg/mL; MIC [25]: 0.78 µg/mL; MIC [26]: 12.5 µg/mL; MIC [27]: 0.1 µg/mL
